Positions count from the first letter of the chain named.
Columns and labels:
Experiment in all cases: ATP hydrolysis, [γ-32P]-ATP TLC, Michaelis-Menten fit
Format in all cases: biochemical
Settings in all cases: M13 ssDNA 1.5 μM nt, 10 nM Pif1, 5 mM MgCl2, 60 mM KCl, pH 7.5, 30 °C, no RPA; labelled compound as tracer
GFP-Pif1 [1] = target: T1, GFP-Pif1 (Saccharomyces cerevisiae, UniProt P07271)
T1 construct: N-terminal superfolder GFP fusion of nuclear isoform residues 40-859, pRSF-Duet-1, E. coli Rosetta2(DE3), Ni-NTA purified
T1 sequence (P07271 40-859): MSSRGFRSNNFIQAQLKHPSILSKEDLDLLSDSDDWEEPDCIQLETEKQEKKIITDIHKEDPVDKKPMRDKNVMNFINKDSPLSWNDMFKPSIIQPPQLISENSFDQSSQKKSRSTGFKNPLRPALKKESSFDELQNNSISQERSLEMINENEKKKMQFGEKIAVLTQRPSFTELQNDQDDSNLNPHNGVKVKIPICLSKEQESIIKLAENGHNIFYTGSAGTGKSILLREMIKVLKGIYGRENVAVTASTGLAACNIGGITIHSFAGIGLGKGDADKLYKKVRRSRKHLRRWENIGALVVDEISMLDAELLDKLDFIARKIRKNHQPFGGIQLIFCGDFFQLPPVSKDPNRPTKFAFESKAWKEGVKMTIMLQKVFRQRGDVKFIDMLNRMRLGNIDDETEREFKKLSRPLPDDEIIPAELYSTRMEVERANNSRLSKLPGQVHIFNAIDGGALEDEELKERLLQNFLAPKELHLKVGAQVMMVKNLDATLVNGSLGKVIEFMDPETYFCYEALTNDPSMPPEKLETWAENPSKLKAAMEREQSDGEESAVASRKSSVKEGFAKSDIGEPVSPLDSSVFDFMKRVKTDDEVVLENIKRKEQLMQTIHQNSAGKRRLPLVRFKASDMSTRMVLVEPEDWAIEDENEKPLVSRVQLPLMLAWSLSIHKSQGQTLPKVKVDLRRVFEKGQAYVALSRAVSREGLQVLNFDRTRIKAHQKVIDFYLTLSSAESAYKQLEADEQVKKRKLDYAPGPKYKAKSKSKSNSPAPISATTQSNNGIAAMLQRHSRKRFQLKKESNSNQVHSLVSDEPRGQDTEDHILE
Method: ATP hydrolysis, [γ-32P]-ATP TLC, Michaelis-Menten fit on GFP-Pif1 | Values for Vmax, Km, and kcat were determined and compared to WT Pif1

GFP-Pif1 [2] = target: T2, GFP-Pif1 (Saccharomyces cerevisiae, UniProt P07271, E724A)
T2 construct: N-terminal superfolder GFP fusion of nuclear isoform residues 40-859, pRSF-Duet-1, E. coli Rosetta2(DE3), Ni-NTA purified
T2 sequence (P07271 40-859 E724A): T1 sequence (P07271 40-859) with E685A
Method: (§1) ATP hydrolysis, [γ-32P]-ATP TLC, Michaelis-Menten fit on GFP-Pif1 | each of the mutant proteins was tested for ATPase activity

GFP-Pif1 [3] = target: T3, GFP-Pif1 (Saccharomyces cerevisiae, UniProt P07271, L310A)
T3 construct: N-terminal superfolder GFP fusion of nuclear isoform residues 40-859, pRSF-Duet-1, E. coli Rosetta2(DE3), Ni-NTA purified
T3 sequence (P07271 40-859 L310A): T1 sequence (P07271 40-859) with L271A
Method: as §1

Km (GFP-Pif1 [1]): 470 ± 620 µM
Km (GFP-Pif1 [2]): 1470 ± 1370 µM
Km (GFP-Pif1 [3]): 650 ± 630 µM
Compound: Nc1ncnc2c1ncn2[C@@H]1O[C@H](COP(=O)(O)OP(=O)(O)OP(=O)(O)O)[C@@H](O)[C@H]1O [ATP]

Source: publication PMC10279920, “Single-molecule visualization of Pif1 helicase translocation on single-stranded DNA” (The Journal of Biological Chemistry, 2023)
